Source: ChEMBL document CHEMBL1152576, “E-Combretastatin and E-resveratrol structural modifications: antimicrobial and cancer cell growth inhibitory beta-E-nitrostyrenes” (Bioorg Med Chem, 2009)
Converted amounts (≈) assume the structure as drawn. The source made the active and inactive calls. The calls are words filed in the database; no cut-off is given here.

Test system: DU-145
Test: Cytotoxicity against human DU145 cells after 48 hrs by sulforhodamine B assay
Type: functional
Settings: DU-145, 48 h

SMILES | GI50
COc1cc(/C=C/[N+](=O)[O-])ccc1OCc1ccccc1 | 1.3 µg/mL (≈ 4.56 µM)

Test system: MCF7
Test: Cytotoxicity against human MCF7 cells after 48 hrs by sulforhodamine B assay
Type: functional
Settings: MCF7, 48 h

SMILES | GI50
COc1cc(/C=C/[N+](=O)[O-])ccc1OCc1ccccc1 | 0.96 µg/mL (≈ 3.36 µM)

Test system: Enterococcus faecalis
Test: Antimicrobial activity against Enterococcus faecalis ATCC 29212 assessed clear zone in inhibition per disk by CLSI disk diffusion susceptibility assay
Type: functional
Settings: not given

SMILES | MIC
COc1cc(/C=C/[N+](=O)[O-])ccc1OCc1ccccc1 | >100 µg

Test system: SF-295
Test: Cytotoxicity against human SF295 cells after 48 hrs by sulforhodamine B assay
Type: functional
Settings: not given

SMILES | GI50
COc1cc(/C=C/[N+](=O)[O-])ccc1OCc1ccccc1 | inactive

Test system: Streptococcus pneumoniae
Test: Antimicrobial activity against Streptococcus pneumoniae ATCC 6303 after 24 hrs by broth microdilution susceptibility assay
Type: functional
Settings: ATCC 6303, 24 h

SMILES | MBC
COc1cc(/C=C/[N+](=O)[O-])ccc1OCc1ccccc1 | 32 µg/mL (≈ 112 µM)

Test system: P388
Test: Cytotoxicity against mouse P388 cells after 48 hrs by sulforhodamine B assay
Type: functional
Settings: P388, 48 h, read-out: ED50 (the source's name)

SMILES | EC50
COc1cc(/C=C/[N+](=O)[O-])ccc1OCc1ccccc1 | 16.6 µg/mL (≈ 58.2 µM)

Test system: Micrococcus luteus
Test: Antimicrobial activity against Micrococcus luteus Presque Isle 456 assessed clear zone in inhibition per disk by CLSI disk diffusion susceptibility assay
Type: functional
Settings: not given

SMILES | MIC
COc1cc(/C=C/[N+](=O)[O-])ccc1OCc1ccccc1 | >100 µg

Test system: Candida albicans
Test: Antimicrobial activity against Candida albicans ATCC 90028 assessed clear zone in inhibition per disk by CLSI disk diffusion susceptibility assay
Type: functional
Settings: not given

SMILES | MIC
COc1cc(/C=C/[N+](=O)[O-])ccc1OCc1ccccc1 | >100 µg

Test system: SF-268
Test: Cytotoxicity against human SF268 cells after 48 hrs by sulforhodamine B assay
Type: functional
Settings: SF-268, 48 h

SMILES | GI50
COc1cc(/C=C/[N+](=O)[O-])ccc1OCc1ccccc1 | 0.94 µg/mL (≈ 3.29 µM)

Test system: Neisseria gonorrhoeae
Test: Antimicrobial activity against Neisseria gonorrhoeae ATCC 49226 assessed clear zone of inhibition measured per disk by CLSI disk diffusion susceptibility assay
Type: functional
Settings: not given

SMILES | MIC
COc1cc(/C=C/[N+](=O)[O-])ccc1OCc1ccccc1 | <0.78 µg

Test system: Streptococcus pneumoniae
Test: Antimicrobial activity against Streptococcus pneumoniae ATCC 6303 assessed clear zone in inhibition per disk by CLSI disk diffusion susceptibility assay
Type: functional
Settings: not given

SMILES | MIC
COc1cc(/C=C/[N+](=O)[O-])ccc1OCc1ccccc1 | 12.5 µg

Test system: Enterobacter cloacae
Test: Antimicrobial activity against Enterobacter cloacae ATCC 13047 by broth microdilution susceptibility assay
Type: functional
Settings: not given

SMILES | MIC
COc1cc(/C=C/[N+](=O)[O-])ccc1OCc1ccccc1 | > 64 µg/mL

Test system: BXPC-3
Test: Cytotoxicity against human BxPC3 cells after 48 hrs by sulforhodamine B assay
Type: functional
Settings: BXPC-3, 48 h

SMILES | GI50
COc1cc(/C=C/[N+](=O)[O-])ccc1OCc1ccccc1 | 1.7 µg/mL (≈ 5.96 µM)

Test system: Neisseria gonorrhoeae
Test: Antimicrobial activity against Neisseria gonorrhoeae ATCC 49226 by broth microdilution susceptibility assay
Type: functional
Settings: not given

SMILES | MIC
COc1cc(/C=C/[N+](=O)[O-])ccc1OCc1ccccc1 | 1 µg/mL (≈ 3.51 µM)

Test system: Staphylococcus aureus
Test: Antimicrobial activity against Staphylococcus aureus ATCC 29213 assessed clear zone in inhibition per disk by CLSI disk diffusion susceptibility assay
Type: functional
Settings: not given

SMILES | MIC
COc1cc(/C=C/[N+](=O)[O-])ccc1OCc1ccccc1 | 6.25 µg

Test system: Staphylococcus aureus
Test: Antimicrobial activity against Staphylococcus aureus ATCC 29213 after 24 hrs by broth microdilution susceptibility assay
Type: functional
Settings: ATCC 29213, 24 h

SMILES | MBC
COc1cc(/C=C/[N+](=O)[O-])ccc1OCc1ccccc1 | > 16 µg/mL

Test system: Streptococcus pneumoniae
Test: Antimicrobial activity against Streptococcus pneumoniae ATCC 6303 by broth microdilution susceptibility assay
Type: functional
Settings: not given

SMILES | MIC
COc1cc(/C=C/[N+](=O)[O-])ccc1OCc1ccccc1 | 16 µg/mL (≈ 56.1 µM)

Test system: Escherichia coli
Test: Antimicrobial activity against Escherichia coli ATCC 25922 by broth microdilution susceptibility assay
Type: functional
Settings: not given

SMILES | MIC
COc1cc(/C=C/[N+](=O)[O-])ccc1OCc1ccccc1 | > 64 µg/mL

Test system: Candida albicans
Test: Antifungal activity against Candida albicans ATCC 90028 after 48 hrs by broth microdilution susceptibility assay
Type: functional
Settings: ATCC 90028, 48 h

SMILES | MIC
COc1cc(/C=C/[N+](=O)[O-])ccc1OCc1ccccc1 | > 64 µg/mL

Test system: Enterococcus faecalis
Test: Antimicrobial activity against Enterococcus faecalis ATCC 29212 by broth microdilution susceptibility assay
Type: functional
Settings: not given

SMILES | MIC
COc1cc(/C=C/[N+](=O)[O-])ccc1OCc1ccccc1 | > 64 µg/mL

Test system: Neisseria gonorrhoeae
Test: Antimicrobial activity against Neisseria gonorrhoeae ATCC 49226 after 24 hrs by broth microdilution susceptibility assay
Type: functional
Settings: ATCC 49226, 24 h

SMILES | MBC
COc1cc(/C=C/[N+](=O)[O-])ccc1OCc1ccccc1 | 2 µg/mL (≈ 7.01 µM)

Test system: Micrococcus luteus
Test: Antimicrobial activity against Micrococcus luteus Presque Isle 456 by broth microdilution susceptibility assay
Type: functional
Settings: not given

SMILES | MIC
COc1cc(/C=C/[N+](=O)[O-])ccc1OCc1ccccc1 | 4 µg/mL (≈ 14 µM)

Test system: Cryptococcus neoformans
Test: Antifungal activity against Cryptococcus neoformans ATCC 90112 after 72 hrs by broth microdilution susceptibility assay
Type: functional
Settings: ATCC 90112, 72 h

SMILES | MIC
COc1cc(/C=C/[N+](=O)[O-])ccc1OCc1ccccc1 | 32 µg/mL (≈ 112 µM)

Test system: Staphylococcus aureus
Test: Antimicrobial activity against Staphylococcus aureus ATCC 29213 by broth microdilution susceptibility assay
Type: functional
Settings: not given

SMILES | MIC
COc1cc(/C=C/[N+](=O)[O-])ccc1OCc1ccccc1 | 4 µg/mL (≈ 14 µM)

Test system: Stenotrophomonas maltophilia
Test: Antimicrobial activity against Stenotrophomonas maltophilia ATCC 13637 assessed clear zone in inhibition per disk by CLSI disk diffusion susceptibility assay
Type: functional
Settings: not given

SMILES | MIC
COc1cc(/C=C/[N+](=O)[O-])ccc1OCc1ccccc1 | >100 µg

Test system: A498
Test: Cytotoxicity against human A498 cells after 48 hrs by sulforhodamine B assay
Type: functional
Settings: not given

SMILES | GI50
COc1cc(/C=C/[N+](=O)[O-])ccc1OCc1ccccc1 | inactive

Test system: not listed separately
Test: Inhibition of tubulin polymerization
Settings: not given

SMILES | IC50
COc1cc(/C=C/[N+](=O)[O-])ccc1OCc1ccccc1 | 2.5 µM

Test system: OVCAR-3
Test: Cytotoxicity against human OVCAR-3 cells after 48 hrs by sulforhodamine B assay
Type: functional
Settings: not given

SMILES | GI50
COc1cc(/C=C/[N+](=O)[O-])ccc1OCc1ccccc1 | inactive

Test system: Escherichia coli
Test: Antimicrobial activity against Escherichia coli ATCC 25922 assessed clear zone in inhibition per disk by CLSI disk diffusion susceptibility assay
Type: functional
Settings: not given

SMILES | MIC
COc1cc(/C=C/[N+](=O)[O-])ccc1OCc1ccccc1 | >100 µg

Test system: Stenotrophomonas maltophilia
Test: Antimicrobial activity against Stenotrophomonas maltophilia ATCC 13637 by broth microdilution susceptibility assay
Type: functional
Settings: not given

SMILES | MIC
COc1cc(/C=C/[N+](=O)[O-])ccc1OCc1ccccc1 | > 64 µg/mL

Test system: Cryptococcus neoformans
Test: Antimicrobial activity against Cryptococcus neoformans ATCC 90112 assessed clear zone in inhibition per disk by CLSI disk diffusion susceptibility assay
Type: functional
Settings: not given

SMILES | MIC
COc1cc(/C=C/[N+](=O)[O-])ccc1OCc1ccccc1 | <0.78 µg

Test system: Enterobacter cloacae
Test: Antimicrobial activity against Enterobacter cloacae ATCC 13047 assessed clear zone in inhibition per disk by CLSI disk diffusion susceptibility assay
Type: functional
Settings: not given

SMILES | MIC
COc1cc(/C=C/[N+](=O)[O-])ccc1OCc1ccccc1 | >100 µg

Test system: SK-MEL-5
Test: Cytotoxicity against human SK-MEL-5 cells after 48 hrs by sulforhodamine B assay
Type: functional
Settings: not given

SMILES | GI50
COc1cc(/C=C/[N+](=O)[O-])ccc1OCc1ccccc1 | inactive

Test system: KM-20L2
Test: Cytotoxicity against human KM20L2 cells after 48 hrs by sulforhodamine B assay
Type: functional
Settings: KM-20L2, 48 h

SMILES | GI50
COc1cc(/C=C/[N+](=O)[O-])ccc1OCc1ccccc1 | 1.5 µg/mL (≈ 5.26 µM)

Test system: NCI-H460
Test: Cytotoxicity against human NCI-H460 cells after 48 hrs by sulforhodamine B assay
Type: functional
Settings: NCI-H460, 48 h

SMILES | GI50
COc1cc(/C=C/[N+](=O)[O-])ccc1OCc1ccccc1 | 1.3 µg/mL (≈ 4.56 µM)

Test system: Cryptococcus neoformans
Test: Antifungal activity against Cryptococcus neoformans ATCC 90112 after 48 hrs by broth microdilution susceptibility assay
Type: functional
Settings: ATCC 90112, 48 h

SMILES | MFC
COc1cc(/C=C/[N+](=O)[O-])ccc1OCc1ccccc1 | 64 µg/mL (≈ 224 µM)
